Results as given in paper PMC11129182, “Development of Inhibitors, Probes, and PROTAC Provides a Complete Toolbox to Study PARK7 in the Living Cell” (Journal of Medicinal Chemistry, 2024).

Target: T1, PARK7 (Homo sapiens, UniProt Q99497)
T1 sequence (Q99497 1-189): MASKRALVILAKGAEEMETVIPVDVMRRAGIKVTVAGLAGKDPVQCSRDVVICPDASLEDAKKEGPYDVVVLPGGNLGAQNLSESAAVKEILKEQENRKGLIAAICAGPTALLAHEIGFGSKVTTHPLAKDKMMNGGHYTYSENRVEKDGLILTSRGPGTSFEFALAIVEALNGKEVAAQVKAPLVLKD
Assay: High-throughput screen of the crude compound library, PARK7 fluorescence polarization (FP) assay with FP reagent JYQ-107
Format: biochemical
Conditions: 1.25 µM, crude compound library; read-out: HTS FP assay %Inhibition (1.25 µM)

Row | SMILES | inhibition at 1.25 µM [%]
1 | N#CN1CC[C@@H](C(=O)Nc2nc3c(s2)CN(C(=O)c2ccc(F)c(S(=O)(=O)N4CCC4)c2)CC3)C1 [compound 221] | 94.8
2 | CN1C(=O)C[C@@H](C(=O)N2CCc3nc(NC(=O)[C@@H]4CCN(C#N)C4)sc3C2)[C@@H]1c1cccnc1 [compound 222] | 63.8
3 | Cc1nc(COc2ccccc2C(=O)N2CCc3nc(NC(=O)[C@@H]4CCN(C#N)C4)sc3C2)no1 [compound 223] | 74
4 | Cc1onc(-c2ccncc2)c1C(=O)N1CCc2nc(NC(=O)[C@@H]3CCN(C#N)C3)sc2C1 [compound 224] | 73.5
5 | N#CN1CC[C@@H](C(=O)Nc2nc3c(s2)CN(C(=O)c2cccc(OCCOc4ccccc4Cl)n2)CC3)C1 [compound 225] | 86.9
6 | N#CN1CC[C@@H](C(=O)Nc2nc3c(s2)CN(C(=O)CC2(n4cnnn4)CCOCC2)CC3)C1 [compound 226] | 68.7
7 | N#CN1CC[C@@H](C(=O)Nc2nc3c(s2)CN(C(=O)c2sc(N4CCCC4)nc2Cl)CC3)C1 [compound 227] | 74
8 | COc1ccc(CN2CCC2C(=O)N2CCc3nc(NC(=O)[C@@H]4CCN(C#N)C4)sc3C2)cc1 (some centres unmarked) [compound 228] | 62.2
9 | COCC1CCN(c2ccc(C(=O)N3CCc4nc(NC(=O)[C@@H]5CCN(C#N)C5)sc4C3)cc2)C1 (some centres unmarked) [compound 229] | 72.8
10 | Cc1nn(-c2cccnc2)nc1C(=O)N1CCc2nc(NC(=O)[C@@H]3CCN(C#N)C3)sc2C1 [compound 230] | 62.8
11 | Cc1nn(-c2ccccn2)c(C)c1CC(=O)N1CCc2nc(NC(=O)[C@@H]3CCN(C#N)C3)sc2C1 [compound 231] | 67.1
12 | N#CN1CC[C@@H](C(=O)Nc2nc3c(s2)CN(C(=O)c2ccnn2C2CCC2)CC3)C1 [compound 232] | 76
13 | N#CN1CC[C@@H](C(=O)Nc2nc3c(s2)CN(C(=O)CC2(Cn4cnnn4)CCCCC2)CC3)C1 [compound 233] | 77.5
14 | N#CN1CC[C@@H](C(=O)Nc2nc3c(s2)CN(C(=O)c2cn(CC4CCOC4)nn2)CC3)C1 (some centres unmarked) [compound 234] | 82.7
15 | N#CN1CC[C@@H](C(=O)Nc2nc3c(s2)CN(C(=O)c2ccn(-c4ccc(C(F)(F)F)cn4)n2)CC3)C1 [compound 235] | 67.4
16 | N#CN1CC[C@@H](C(=O)Nc2nc3c(s2)CN(C(=O)c2sccc2S(=O)(=O)NCc2ccco2)CC3)C1 [compound 236] | 58.7
17 | N#CN1CC[C@@H](C(=O)Nc2nc3c(s2)CN(C(=O)c2cnn(Cn4cc(Cl)cn4)c2)CC3)C1 [compound 237] | 80
18 | N#CN1CC[C@@H](C(=O)Nc2nc3c(s2)CN(C(=O)c2nc(OCC4CC4)ccc2Cl)CC3)C1 [compound 238] | 53.7
19 | CC(C(=O)N1CCc2nc(NC(=O)[C@@H]3CCN(C#N)C3)sc2C1)n1ccc(C2CC2)n1 (some centres unmarked) [compound 239] | 67.1
20 | Cn1cc(S(=O)(=O)N2CCOCC2)cc1C(=O)N1CCc2nc(NC(=O)[C@@H]3CCN(C#N)C3)sc2C1 [compound 240] | 75.1
21 | Cn1nc(CC(=O)N2CCc3nc(NC(=O)[C@@H]4CCN(C#N)C4)sc3C2)cc1C1CC1 [compound 241] | 86.1
22 | Cc1sc(-n2cnnn2)c(C(=O)N2CCc3nc(NC(=O)[C@@H]4CCN(C#N)C4)sc3C2)c1C [compound 243] | 61.9

Row | SMILES | inhibition at 1.25 µM [%]
23 | Cc1noc(-c2ccc(C(=O)N3CCc4nc(NC(=O)[C@@H]5CCN(C#N)C5)sc4C3)cc2)n1 [compound 244] | 58.5
24 | N#CN1CC[C@@H](C(=O)Nc2nc3c(s2)CN(C(=O)c2cc(-c4cccc(Cl)c4)no2)CC3)C1 [compound 245] | 10.9
25 | CCOc1oc(-c2ccco2)nc1C(=O)N1CCc2nc(NC(=O)[C@@H]3CCN(C#N)C3)sc2C1 [compound 246] | 82.7
26 | Cc1ccc(S(=O)(=O)NCCc2ccc(F)cc2)cc1C(=O)N1CCc2nc(NC(=O)[C@@H]3CCN(C#N)C3)sc2C1 [compound 247] | 86.9
27 | Cc1nc(-c2ccco2)ccc1C(=O)N1CCc2nc(NC(=O)[C@@H]3CCN(C#N)C3)sc2C1 [compound 248] | 84.8
28 | N#CN1CC[C@@H](C(=O)Nc2nc3c(s2)CN(C(=O)C2(CC(=O)N4CCOCC4)CCCC2)CC3)C1 [compound 249] | 73.8
29 | CN(Cc1ccccc1)C(=O)N1CCC(C(=O)N2CCc3nc(NC(=O)[C@@H]4CCN(C#N)C4)sc3C2)CC1 [compound 250] | 67.7
30 | N#CN1CC[C@@H](C(=O)Nc2nc3c(s2)CN(C(=O)C2(NS(=O)(=O)C=Cc4ccccc4)CCCC2)CC3)C1 [compound 251] | 66.6
31 | N#CN1CC[C@@H](C(=O)Nc2nc3c(s2)CN(C(=O)C(Cc2ccccc2)N2CCCOC2=O)CC3)C1 (some centres unmarked) [compound 252] | 74.6
32 | N#CN1CC[C@@H](C(=O)Nc2nc3c(s2)CN(C(=O)c2ccc(N4CCCS4(=O)=O)cc2)CC3)C1 [compound 253] | 85.9
33 | Cc1ccc(CN2C(=O)CCC2C(=O)N2CCc3nc(NC(=O)[C@@H]4CCN(C#N)C4)sc3C2)cc1 (some centres unmarked) [compound 254] | 53.9
34 | N#CN1CC[C@@H](C(=O)Nc2nc3c(s2)CN(C(=O)c2nc(C4CC4)ncc2Br)CC3)C1 [compound 255] | 74
35 | CN1C(=O)CCC(C(=O)N2CCc3nc(NC(=O)[C@@H]4CCN(C#N)C4)sc3C2)C1c1cccs1 (some centres unmarked) [compound 256] | 61.4
36 | COc1ccc(CC(=O)N2CCc3nc(NC(=O)[C@@H]4CCN(C#N)C4)sc3C2)cc1S(=O)(=O)N1CCOCC1 [compound 257] | 75.5
37 | Cc1noc(C)c1S(=O)(=O)N1CCCC1C(=O)N1CCc2nc(NC(=O)[C@@H]3CCN(C#N)C3)sc2C1 (some centres unmarked) [compound 259] | 69.8
38 | Cc1cc(C(=O)N(C)c2ccccc2C(=O)N2CCc3nc(NC(=O)[C@@H]4CCN(C#N)C4)sc3C2)sc1C [compound 260] | 61.7
39 | N#CN1CC[C@@H](C(=O)Nc2nc3c(s2)CN(C(=O)c2ccc(N4CCCCCC4)nc2)CC3)C1 [compound 261] | 84.5
40 | N#CN1CC[C@@H](C(=O)Nc2nc3c(s2)CN(C(=O)CC2=NN(c4cccc(Cl)c4)C(=O)C2)CC3)C1 [compound 262] | 71.9
41 | Cc1oc(-c2cccs2)nc1C(=O)N1CCc2nc(NC(=O)[C@@H]3CCN(C#N)C3)sc2C1 [compound 263] | 78.3
42 | N#CN1CC[C@@H](C(=O)Nc2nc3c(s2)CN(C(=O)c2ccnc(C4CC4)n2)CC3)C1 [compound 264] | 67.7
43 | Cn1ccnc1CN1CCC(C(=O)N2CCc3nc(NC(=O)[C@@H]4CCN(C#N)C4)sc3C2)CC1 [compound 265] | 70.6
44 | N#CN1CC[C@@H](C(=O)Nc2nc3c(s2)CN(C(=O)c2cc(C4CC4)no2)CC3)C1 [compound 266] | 73.2

Row | SMILES | inhibition at 1.25 µM [%]
45 | N#CN1CC[C@@H](C(=O)Nc2nc3c(s2)CN(C(=O)C2CCN(C(=O)c4ccc(Cl)s4)CC2)CC3)C1 [compound 267] | 75.5
46 | CC1CN(c2ccc(C(=O)N3CCc4nc(NC(=O)[C@@H]5CCN(C#N)C5)sc4C3)cn2)CC(C)O1 (some centres unmarked) [compound 269] | 85.9
47 | N#CN1CC[C@@H](C(=O)Nc2nc3c(s2)CN(C(=O)c2csc(C4CCCCC4)n2)CC3)C1 [compound 270] | 87.2
48 | N#CN1CC[C@@H](C(=O)Nc2nc3c(s2)CN(C(=O)c2occc2-c2ccccc2)CC3)C1 [compound 271] | 81.3
49 | N#CN1CC[C@@H](C(=O)Nc2nc3c(s2)CN(C(=O)c2ccc(Cn4cccn4)s2)CC3)C1 [compound 272] | 83.3
50 | N#CN1CC[C@@H](C(=O)Nc2nc3c(s2)CN(C(=O)C2CC4CCC2O4)CC3)C1 (some centres unmarked) [compound 273] | 67.4
51 | N#CN1CC[C@@H](C(=O)Nc2nc3c(s2)CN(C(=O)C2CC4C=CC2O4)CC3)C1 (some centres unmarked) [compound 275] | 72
52 | N#CN1CC[C@@H](C(=O)Nc2nc3c(s2)CN(C(=O)C2CC=CCC2C(=O)N2CCOCC2)CC3)C1 (some centres unmarked) [compound 276] | 74.3
53 | N#CN1CC[C@@H](C(=O)Nc2nc3c(s2)CN(C(=O)c2cccc(N4CCOCC4)n2)CC3)C1 [compound 277] | 64.6
54 | N#CN1CC[C@@H](C(=O)Nc2nc3c(s2)CN(C(=O)c2cccc(Cn4cncn4)c2)CC3)C1 [compound 278] | 80.6
55 | N#CN1CC[C@@H](C(=O)Nc2nc3c(s2)CN(C(=O)c2ccc(Cn4ccnn4)o2)CC3)C1 [compound 280] | 81.9
56 | Cc1onc(C(=O)N2CCc3nc(NC(=O)[C@@H]4CCN(C#N)C4)sc3C2)c1CN1CCOCC1 [compound 281] | 62.3
57 | N#CN1CC[C@@H](C(=O)Nc2nc3c(s2)CN(C(=O)C2CCN(S(=O)(=O)N4CCCCC4)CC2)CC3)C1 [compound 282] | 72.8
58 | CC1(C(=O)N2CCc3nc(NC(=O)[C@@H]4CCN(C#N)C4)sc3C2)CCCCN1C(=O)OCc1ccccc1 (some centres unmarked) [compound 283] | 65.2
59 | N#CN1CC[C@@H](C(=O)Nc2nc3c(s2)CN(C(=O)c2sccc2S(=O)(=O)NC2CCCCCC2)CC3)C1 [compound 284] | 75.9
60 | CCn1nccc1-c1cc(C(=O)N2CCc3nc(NC(=O)[C@@H]4CCN(C#N)C4)sc3C2)no1 [compound 285] | 81.3
61 | N#CN1CC[C@@H](C(=O)Nc2nc3c(s2)CN(C(=O)c2cccc(C(=O)N4CCCC4)n2)CC3)C1 [compound 286] | 81.9
62 | N#CN1CC[C@@H](C(=O)Nc2nc3c(s2)CN(C(=O)[C@@H]2CCCO[C@H]2c2ccccc2)CC3)C1 [compound 287] | 64.1
63 | N#CN1CC[C@@H](C(=O)Nc2nc3c(s2)CN(C(=O)C2CCCN(S(=O)(=O)c4cccs4)C2)CC3)C1 (some centres unmarked) [compound 288] | 78.6
64 | N#CN1CC[C@@H](C(=O)Nc2nc3c(s2)CN(C(=O)c2ccc(Cn4cc(Cl)c(C(F)(F)F)n4)o2)CC3)C1 [compound 289] | 81.4
65 | COc1ccc(C(=O)N2CCc3nc(NC(=O)[C@@H]4CCN(C#N)C4)sc3C2)cc1S(=O)(=O)N(C)CCc1cccnc1 [compound 290] | 67.7
